For series [1], the target named is ERp5 (Homo sapiens (Human), UniProt Q15084). Kind of series: Insulin turbidimetric assay counter screen, ERp5. It is filed as biochemical. On the procedure: (§1) PDI inhibitors were evaluated in an insulin turbidimetric assay to assess their ability to block the reductase activity of PDI. The assay measured the aggregation of insulin chains by monitoring absorbance at 650 nm as previously described in Jasuja, R. et al. Protein disulfide isomerase inhibitors constitute a new class of antithrombotic agents. J Clin Invest 122, 2104-2113 (2012) (hereinafter “Jasija”). Cleavage of disulfide bonds within insulin by PDI results in aggregation of insulin. When PDI is inhibited, there is a decrease in aggregation of insulin, and therefore a decrease in absorbance signal at 650 nm. Recombinant human PDI expressed and purified from E. coli., mixed with bovine insulin (Sigma), and added to assay plates. The reaction mixture for insulin reduction assays contained 100 mM potassium phosphate, pH 7.4; 0.75 mM DTT, 2 mM EDTA, 0.1 mM bovine insulin, and 0.8 μM purified human PDI in a total volume of 135 μl in a 96 well plate. The progress of the reaction was monitored for 30 min at 23° C. Indicated inhibitors or control buffer was added prior to the addition of enzyme at the concentrations indicated. PDI activity in the presence of compound was determined by the formula, PDI activity (%)={OD(compound+PDI+DTT)−OD(DTT)}/{OD(PDI+DTT)−OD(DTT)}×100 % enzyme inhibition={1−(ODmax(compound+enzyme)/ODmax(buffer control+enzyme)}
ERp5, sequence (Q15084 20-440, species assumed): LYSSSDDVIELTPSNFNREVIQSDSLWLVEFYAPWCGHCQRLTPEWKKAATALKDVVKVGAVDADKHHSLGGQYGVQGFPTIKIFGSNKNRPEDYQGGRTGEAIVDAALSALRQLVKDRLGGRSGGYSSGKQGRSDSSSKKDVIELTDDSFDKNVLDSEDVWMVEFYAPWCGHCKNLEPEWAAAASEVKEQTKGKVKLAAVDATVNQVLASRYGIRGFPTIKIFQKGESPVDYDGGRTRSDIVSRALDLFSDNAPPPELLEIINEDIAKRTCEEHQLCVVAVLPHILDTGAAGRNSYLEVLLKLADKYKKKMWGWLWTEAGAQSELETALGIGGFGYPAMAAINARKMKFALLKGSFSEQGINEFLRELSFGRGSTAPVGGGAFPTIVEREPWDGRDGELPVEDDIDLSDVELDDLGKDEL
(§2) The insulin turbidimetric assay was used with alternative thiol isomerases to evaluate the specificity of inhibitors, as shown in Tables B and C. Other oxidoreductases used to evaluate the specificity of inhibitors include ERp5, thioredoxin (TR), and thioredoxin reductase (TRR).
(The purpose of a counterscreen is to sort out artefacts and off-target activity.)

Series [2] deals with Thioredoxin reductase. The experiment in a line: Insulin turbidimetric assay counter screen, thioredoxin reductase. It is filed as biochemical. How it is done:
as §1, §2

The test system of series [3] is washed platelets. Kind of series: Platelet aggregation (SFLLRN-induced, washed platelets). It is filed as cell-based. The note with it: inhibition of platelet aggregation; compounds at 30 μM, 30 minutes at 37° C., SFLLRN-initiated. On the procedure:
Platelet Rich Plasma (PRP) was prepared from whole blood obtained from individual donors and drawn into Acid Citrate Dextrose (ACD) at 15% of total volume. PGE-1 was added to a final concentration of 0.15 µM to maintain the resting state. PRP was spun at 1000 g×10 minutes and the supernatant was discarded. The platelet pellet was resuspended in Modified HEPES-Tyrodes buffer pH 7.3. The 1× washed platelets were incubated for 20 minutes at 37° C. until they were in a quiescent state. The above washing procedure was then repeated. The 2× washed platelets were allowed to rest for 20 minutes at 37° C. Platelets were then counted and the concentration of platelets in suspension was adjusted to 200,000 platelets/µL. The 2× washed platelets were treated with compounds at 30 µM, and were incubated for 30 minutes at 37° C. Following incubation, platelets were added to a cuvette and stirred at 37° C. in a Chrono-Log Platelet Aggregometer. In order to initiate aggregation, a concentration of SFLLRN, the thrombin receptor activating peptide, sufficient to elicit 60-70% light transmittance was added to the cuvette. Therefore, a range of 2-3 µM SFLLRN was used in order to accommodate small differences in sensitivity to SFLLRN between individual donors. Prior to reading, the aggregometer was scaled so that unstimulated, washed platelets are set to 0% light transmittance, and buffer alone with no platelets is set to 100% light transmittance. The light transmittance of each sample was recorded as a measure of aggregation. Data were recorded as a single point representing maximum aggregation in the presence of compound and were compared to samples exposed to vehicle (DMSO) alone. See Jasuja

Series [4] concerns the target human PDI (Homo sapiens (Human), UniProt P07237). Kind of series: Insulin turbidimetric assay of PDI reductase activity. It is filed as biochemical. On the procedure:
as §1
IC50 values were calculated using non-linear regression analysis.

Series [5] has as its target Thioredoxin (Homo sapiens (Human), UniProt P10599). Kind of series: Insulin turbidimetric assay counter screen, thioredoxin. It is filed as biochemical. How it is done:
as §1, §2

Series [6] deals with ERp57 (Homo sapiens (Human), UniProt P30101). Kind of series: Insulin turbidimetric assay counter screen, ERp57. It is filed as biochemical. The note with it: Table B; read-out: Counter Screen: Selectivity against other thiol isomerases IC50 ERp57. How it is done: as §1, §2
ERp57, sequence (P30101 25-505, species assumed): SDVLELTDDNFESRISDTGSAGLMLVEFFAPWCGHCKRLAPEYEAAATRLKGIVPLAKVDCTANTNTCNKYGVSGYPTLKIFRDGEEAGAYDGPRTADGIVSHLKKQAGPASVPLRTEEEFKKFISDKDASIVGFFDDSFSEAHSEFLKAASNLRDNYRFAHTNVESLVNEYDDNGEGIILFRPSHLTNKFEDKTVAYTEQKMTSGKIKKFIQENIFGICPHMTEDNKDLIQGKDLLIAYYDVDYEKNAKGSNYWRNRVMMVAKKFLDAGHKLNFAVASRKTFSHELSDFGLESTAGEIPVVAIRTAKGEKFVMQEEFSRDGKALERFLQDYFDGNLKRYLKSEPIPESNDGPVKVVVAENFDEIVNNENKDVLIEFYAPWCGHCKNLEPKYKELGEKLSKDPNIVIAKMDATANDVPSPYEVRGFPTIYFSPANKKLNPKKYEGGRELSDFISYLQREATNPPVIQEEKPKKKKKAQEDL
Series [7] is described as follows: Stability of PDI inhibitors in human plasma. It is filed as in vitro ADME. The note with it: 1 μM, room temperature. How it is done: (§3) The stability of PDI inhibitors was measured in the presence of PBS pH 7.4 with 1% DMSO. PDI inhibitors were added to plasma (in triplicate at 1 μM) on six separate plates and allowed to equilibrate at room temperature for 48 hours. At each time point (0, 2, 4, 8, 24, and 48 hours), one plate was removed and an aliquot was taken out from each well and analyzed by UPLC-MS.

Series [8] can be described thus: Stability of PDI inhibitors in mouse plasma. The note with it: 1 μM, room temperature. It is filed as in vitro ADME. How it is done: as §3
Setting [9] is: Table B, read-out: Counter Screen: Selectivity against other thiol isomerases IC50 ERp5.
[10] abbreviates: Table C, read-out: Specif. (ERp5, TR, TRR): ERp5.
Setting [11] is: Table B, read-out: Counter Screen: Selectivity against other thiol isomerases IC50 Thioredoxin reductase.
Where [12] appears, read: Table C, read-out: Specif. (ERp5, TR, TRR): TRR.
[13] abbreviates: Table A, average of two independent experiments, read-out: PDI_Inhibition_ IC50.
The mark [14] stands for this setting: Table B, read-out: PDI_ Inhibition_ IC50.
The mark [15] stands for this setting: insulin reductase assay, recombinant human PDI, read-out: PDI_Inhibition_ IC50.
[16] abbreviates: Table B, read-out: Counter Screen: Selectivity against other thiol isomerases IC50 Thioredoxin.
Where [17] appears, read: Table C, read-out: Specif. (ERp5, TR, TRR): TR.

Like-named read-outs stand apart in the source and are kept apart here.

Thioredoxin, sequence (P10599 whole entry, species assumed): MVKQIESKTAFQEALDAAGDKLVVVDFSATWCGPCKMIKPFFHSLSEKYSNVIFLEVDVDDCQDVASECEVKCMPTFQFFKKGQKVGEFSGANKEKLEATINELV
human PDI, sequence (P07237 18-508): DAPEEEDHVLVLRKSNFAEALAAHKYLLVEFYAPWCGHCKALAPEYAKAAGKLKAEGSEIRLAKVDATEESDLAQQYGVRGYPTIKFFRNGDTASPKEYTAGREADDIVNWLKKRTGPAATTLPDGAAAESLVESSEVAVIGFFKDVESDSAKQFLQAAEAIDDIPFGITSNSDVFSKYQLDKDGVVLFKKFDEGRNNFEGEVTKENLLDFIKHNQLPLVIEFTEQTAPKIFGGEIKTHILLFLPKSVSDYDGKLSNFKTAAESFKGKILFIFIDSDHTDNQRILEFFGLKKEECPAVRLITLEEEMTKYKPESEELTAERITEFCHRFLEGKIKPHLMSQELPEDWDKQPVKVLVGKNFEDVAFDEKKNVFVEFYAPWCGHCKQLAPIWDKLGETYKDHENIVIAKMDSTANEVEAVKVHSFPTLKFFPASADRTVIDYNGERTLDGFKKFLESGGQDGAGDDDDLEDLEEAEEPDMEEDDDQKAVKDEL

As for `CCOC(=O)C1(CCOc2ccccc2)CCN(Cc2ccc(O)c(Cl)c2)CC1` [Compound 1, Ethyl 1-(3-chloro-4-hydroxybenzyl)-4-(2-phenoxyethyl)piperidine-4-carboxylate], the IC50 in series [1] (setting [9]) is above 30 µM; in series [1] (setting [10]) it was above 30 µM; in series [2] (setting [11]) it was above 30 µM; in series [2] (setting [12]), above 30 µM; in series [4] (setting [13]) it was 0.25 µM; in series [4] (setting [14]), 0.25 µM. For the same compound, the IC50 in series [4] (Table C, PDI, read-out: IC50) is 0.3 to 0.6 µM; in series [4] (setting [15]), 0.25 µM; in series [5] (setting [16]), above 30 µM; in series [5] (setting [17]) it was above 30 µM; in series [6], above 30 µM. For the same compound, the “Platelet Aggregation” value in series [3] was 25-50%. The same compound registered a Plasma stability human in series [7] of 100%. This compound also registered a Plasma stability mouse in series [8] of 5.3%.

With `CCOC(=O)C1(CCOc2ccccc2)CCN(Cc2ccc(OC)c(Cl)c2)CC1` [Compound 4], the IC50 in series [2] (setting [11]), in series [4] (setting [13]), in series [4] (setting [14]), in series [4] (setting [15]), in series [5] (setting [16]) and in series [6] was above 30 µM each time.

Turning to `C=CCOc1ccc(CN2CCC(CCOc3ccccc3)(C(=O)OCC)CC2)cc1Cl` [Compound 5], the IC50 in series [4] (setting [13]) and in series [4] (setting [15]) was above 30 µM in each case.

As to `CCOC(=O)C1(CCOc2ccccc2)CCN(Cc2ccc(OC)cc2)CC1` [Compound 6], the IC50 in series [4] (setting [13]) and in series [4] (setting [15]) was above 30 µM each time.

On to `CCOC(=O)C1(CCOc2ccccc2)CCN(Cc2ccc(O)cc2)CC1` [Compound 7], for which the IC50 is above 30 µM in series [2] (setting [11]), 15 µM in series [4] (setting [14]), above 30 µM in series [5] (setting [16]) and above 30 µM in series [6].

Regarding `CCOC(=O)C1(CCOc2ccccc2)CCN(Cc2ccc3[nH]c(=O)oc3c2)CC1` [Compound 8], the IC50 in series [4] (setting [13]) and in series [4] (setting [15]) was above 30 µM throughout.

For the compound `CCOC(=O)C1(CCOc2ccccc2)CCN(C(=O)c2ccc(O)c(Cl)c2)CC1` [Compound 9], the IC50 in series [1] (setting [10]) was above 30 µM; in series [2] (setting [11]), above 30 µM; in series [2] (setting [12]), above 30 µM; in series [4] (setting [13]), 2.25 µM; in series [4] (setting [14]), 2.25 µM; in series [4] (Table C, PDI, read-out: IC50) it was 2.25 µM. Also, the IC50 in series [4] (setting [15]) is 2.25 µM; in series [5] (setting [16]), above 30 µM; in series [5] (setting [17]) it was above 30 µM; in series [6] it was above 30 µM. Further, the “Platelet Aggregation” value in series [3] turned out to be 100%. In series [7], this compound had a Plasma stability human of 100%. In addition, in series [8], the Plasma stability mouse is recorded as 100%.

Consider `CC(C)OC(=O)C1(CCOc2ccccc2)CCN(Cc2ccc(O)c(Cl)c2)CC1` [Compound 13], for which the IC50 in series [1] (setting [9]) is above 30 µM; in series [1] (setting [10]) it was above 30 µM; in series [2] (setting [11]) it was above 30 µM; in series [2] (setting [12]) it was above 30 µM; in series [4] (setting [13]), 0.85 µM; in series [4] (setting [14]), 0.85 µM. The IC50 is 0.85 µM in series [4] (Table C, PDI, read-out: IC50); 0.85 µM in series [4] (setting [15]); above 30 µM in series [5] (setting [16]); above 30 µM in series [5] (setting [17]); above 30 µM in series [6]. Moreover, the “Platelet Aggregation” value in series [3] amounted to 97%. In series [7], this compound gave a Plasma stability human of 97.9%. In series [8], the Plasma stability mouse is 75.3%.

Regarding `CC(C)(C)OC(=O)C1(CCOc2ccccc2)CCN(Cc2ccc(O)c(Cl)c2)CC1` [Compound 14], the IC50 in series [1] (setting [9]) is above 30 µM; in series [1] (setting [10]), above 30 µM; in series [2] (setting [11]), above 30 µM; in series [2] (setting [12]), above 30 µM; in series [4] (setting [13]) it was 0.65 µM; in series [4] (setting [14]), 0.65 µM. Further, the IC50 in series [4] (Table C, PDI, read-out: IC50) is 0.65 µM; in series [4] (setting [15]), 0.65 µM; in series [5] (setting [16]), above 30 µM; in series [5] (setting [17]), above 30 µM; in series [6], above 30 µM. For the same compound, in series [3], the “Platelet Aggregation” value is given as 100%. This compound gave a Plasma stability human in series [7] of 98.7%. Also, the Plasma stability mouse in series [8] is given as 95.6%.

Take `CCNC(=O)C1(CCOc2ccccc2)CCN(Cc2ccc(O)c(Cl)c2)CC1` [Compound 15]: the IC50 in series [4] (setting [13]) and in series [4] (setting [15]) was above 30 µM each time.

Take `CCN(C)C(=O)C1(CCOc2ccccc2)CCN(Cc2ccc(O)c(Cl)c2)CC1` [Compound 16]: the IC50 in series [2] (setting [11]) was above 30 µM; in series [4] (setting [13]) it was 3 µM; in series [4] (setting [14]), 3 µM; in series [4] (setting [15]), 3 µM; in series [5] (setting [16]), above 30 µM; in series [6] it was above 30 µM.

In the case of `O=C(NC1CCCC1)C1(CCOc2ccccc2)CCN(Cc2ccc(O)c(Cl)c2)CC1` [Compound 17], the IC50 was above 30 µM in series [2] (setting [11]); 4 µM in series [4] (setting [13]); 4 µM in series [4] (setting [14]); 4 µM in series [4] (setting [15]); above 30 µM in series [5] (setting [16]); above 30 µM in series [6].

`O=C(N1CCCC1)C1(CCOc2ccccc2)CCN(Cc2ccc(O)c(Cl)c2)CC1` [Compound 18]: the IC50 in series [4] (setting [13]) and in series [4] (setting [15]) was above 30 µM each time.

For `O=C(Nc1ccccc1)C1(CCOc2ccccc2)CCN(Cc2ccc(O)c(Cl)c2)CC1` [Compound 19], the IC50 in series [2] (setting [11]) was above 30 µM; in series [4] (setting [13]), 22.5 µM; in series [4] (setting [14]), 22.5 µM; in series [4] (setting [15]) it was 22.5 µM; in series [5] (setting [16]), above 30 µM; in series [6], above 30 µM.

Source of the values: patent US10064853B2, “Compounds for use in methods for treating diseases or conditions mediated by protein disulfide isomerase” (Beth Israel Deaconess Medical Center, Inc., priority 2013, dated 2018).
